From patent publication US20250059205A1, “Heterocyclic Compounds and Methods of Use” (AMGEN INC., priority 2021, published 2025)
pIC50: −log10 of the molar value. Read-outs that look alike come from different tables or passages of the source.

Key:
[1] = biological target: GDP-bound KRAS protein (aa 1-169), containing both G12D and C118A amino acid substitutions (Homo sapiens, UniProt P01116, C118A/G12D); assay: KRAS G12D Coupled Nucleotide Exchange Assay; format: biochemical; conditions: 2 h compound pre-incubation
Chain of GDP-bound KRAS protein (aa 1-169), containing both G12D and C118A amino acid substitutions (P01116 1-169 isoform P01116-2 G12D/C118A): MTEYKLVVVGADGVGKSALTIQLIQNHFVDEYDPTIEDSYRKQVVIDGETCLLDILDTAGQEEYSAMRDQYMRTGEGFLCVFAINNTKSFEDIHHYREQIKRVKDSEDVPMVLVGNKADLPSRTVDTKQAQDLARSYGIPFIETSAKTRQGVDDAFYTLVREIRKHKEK
Protocol: Following compound pre-incubation, purified SOS protein (aa 564-1049) and GTP (Roche 10106399001) were added to the assay wells and incubated for an additional 30 min. […] The assay plates were then read on a PerkinElmer EnVision Multilabel Reader, using AlphaScreen® technology, and data were analyzed using a 4-parameter logistic model to calculate IC50 values.

[2] = biological target: His-tagged KRAS G12D protein (Homo sapiens, UniProt P01116, G12D); assay: KRAS G12D TR-FRET Assay; format: binding
Chain of His-tagged KRAS G12D protein (P01116 1-188 isoform P01116-2 G12D): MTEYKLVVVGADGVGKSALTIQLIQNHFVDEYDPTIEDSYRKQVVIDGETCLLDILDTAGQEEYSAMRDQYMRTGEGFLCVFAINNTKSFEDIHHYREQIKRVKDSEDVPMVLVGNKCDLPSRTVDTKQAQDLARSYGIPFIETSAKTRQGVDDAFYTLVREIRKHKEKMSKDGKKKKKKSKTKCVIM
Protocol: Compounds of interest were prepared in a dose-response titration in DMSO, and 80 nL were added via Labcyte Echo to each well of a 384-well plate (Perkin Elmer 6008280). […] The plate was incubated for 30 minutes at room temperature. Biotinylated KRPep-2d substrate (Amgen) was diluted to 20 nM in Assay Buffer and 2 μL was added to all wells and incubated for 1 h at room temperature. Detection Reagent (0.4 nM LANCE Eu-W1024 Anti-6xHis (Perkin Elmer AD0401), 5 nM streptavidin-d2 (Cisbio 610SADLA)) was prepared in Assay Buffer, then 4 μL was added to the plate and incubated for 1 h at room temperature. Plates were read using PerkinElmer EnVision (ex: 320 nm, em1: 665 nm, em2: 615 nm) and em1/em2 data was used to generate curve fits using a 4-parameter logistic model to calculate IC50 values.

[3] = test system: Phosphorylation of ERK1/2 in AsPC-1 cells; assay: Phospho-ERK1/2 MSD Assay (AsPC-1 cells); format: cell-based; conditions: Homo sapiens, read-out: p-ERK (AsPC-1 cells) IC50
Protocol: AsPC-1 (ATCC® CRL-1682™) cells were cultured in RPMI 1640 Medium (ThermoFisher Scientific 11875093) containing 10% fetal bovine serum (ThermoFisher Scientific 16000044) and 1× penicillin-streptomycin-glutamine (ThermoFisher Scientific 10378016). Sixteen hours prior to compound treatment, AsPC-1 cells were seeded in 96-well cell culture plates at a density of 25,000 cells/well and incubated at 37° C., 5% CO2. A compound dose-response titration was diluted in growth media, added to appropriate wells of a cell culture plate, and then incubated at 37° C., 5% CO2 for 2 hours. Following compound treatment, cells were washed with ice-cold Dulbecco's phosphate-buffered saline, no Ca^2+ or Mg^2+ (ThermoFisher Scientific 14190144), and then lysed in RIPA buffer (50 mM Tris-HCl pH 7.5, 1% Igepal, 0.5% sodium deoxycholate, 150 mM NaCl, and 0.5% sodium dodecyl sulfate) containing protease inhibitors (Roche 4693132001) and phosphatase inhibitors (Roche 4906837001). Phosphorylation of ERK1/2 in compound-treated lysates was assayed using Phospho-ERK1/2 Whole Cell Lysate kits (Meso Scale Discovery K151DWD) according to the manufacturer's protocol. Assay plates were read on a Meso Scale Discovery Sector Imager 6000, and data were analyzed using a 4-parameter logistic model to calculate IC50 values.

Row | SMILES | Avg 2 h Coupled Exchange IC50 [1] [nM] | pIC50 [2] | pIC50 ([3]; ASPC1, 2 h, 2 hours treatment) | pIC50 ([3]; ASPC1, 2 hours treatment)
1 | CCc1c(F)ccc2cc(O)cc(-c3ccc4c(N5C[C@H]6CC[C@@H](C5)N6)cc(OC[C@@]56CCCN5C[C@H](F)C6)nc4c3)c12 [Example 210, 4-(4-((1R,5S)-3,8-Diazabicyclo[3.2.1]octan-3-yl)-2-(((2R,7aS)-2-fluorotetrahydro-1H-pyrrolizin-7a(5H)-yl)methoxy)quinolin-7-yl)-5-ethyl-6-fluoronaphthalen-2-ol] | 69 | 7.36 | – | –
2 | Cn1ncc2cccc(-c3ccc4c(N5C[C@H]6CC[C@@H](C5)N6)nc(OC[C@@]56CCCN5C[C@H](F)C6)nc4c3)c21 [Example 66, 4-((1R,5S)-3,8-diazabicyclo [3.2. 1]octan-3-yl)-2-(((2R,7aS)-2-fluorotetrahydro-1H-pyrrolizin-7a(5H)-yl)methoxy)-7-(1-methyl-1H-indazol-7-yl)quinazoline] | 300 | 6.03 | – | –
3 | N#Cc1c(OC[C@@]23CCCN2C[C@H](F)C3)nc2c(F)c(-c3cc(O)cc4ccccc34)ccc2c1N1C[C@H]2CC[C@@H](C1)N2 [Example 62, 4-((1R,5S)-3,8-diazabicyclo[3.2. 1]octan-3-yl)-8-fluoro-2-(((2R,7aS)-2-fluorotetrahydro-1H-pyrrolizin-7a(5H)-yl)methoxy)-7-(3-hydroxynaphthalen-1-yl)quinoline-3-carbonitrile] | 1170 | 5.58 | – | –
4 | Cc1ccc2cn[nH]c2c1-c1ccc2c(N3C[C@H]4CC[C@@H](C3)N4)nc(OC[C@@]34CCCN3C[C@H](F)C4)nc2c1 [Example 67, 4-((1R,5S)-3,8-diazabicyclo[3.2. 1]octan-3-yl)-2-(((2R,7aS)-2-fluorotetrahydro-1H-pyrrolizin-7a(5H)-yl)methoxy)-7-(6-methyl-1H-indazol-7-yl)quinazoline] | 199 | 6.29 | – | –
5 | CN1C[C@H](F)C[C@H]1COc1nc2c(F)c(-c3cc(O)cc4ccccc34)c(Cl)cc2c(N2C[C@H]3CC[C@@H](C2)N3)c1C#N [Example 63, 4-((1R,5S)-3,8-diazabicyclo[3.2. 1]octan-3-yl)-6-chloro-8-fluoro-2-(((2S,4R)-4-fluoro-1-methylpyrrolidin-2-yl)methoxy)-7-(3-hydroxynaphthalen-1-yl)quinoline-3-carbonitrile] | 555 | < 4.60 | – | –
6 | CCc1c(F)ccc2cc(O)cc(-c3c(F)cc4c(N5C[C@H]6CC[C@@H](C5)N6)nc(OCC5(C)CCC(=O)N5)nc4c3F)c12 (stereo partly drawn) [Example 216, 5-(((4-((1R,5S)-3,8-diazabicyclo[3.2.1]octan-3-yl)-7-(8-ethyl-7-fluoro-3-hydroxynaphthalen-1-yl)-6,8-difluoroquinazolin-2-yl)oxy)methyl)-5-methylpyrrolidin-2-one] | 9 | 8.30 | 6.08 | –
7 | C=Cc1c(F)ccc2cccc(-c3ccc4c(N5[C@@H]6CC[C@H]5CNC6)nc(OC[C@@]56CCCN5C[C@H](F)C6)nc4c3)c12 [Example 104, 4-((1R,5S)-3,8-diazabicyclo[3.2.1]octan-8-yl)-7-(7-fluoro-8-vinylnaphthalen-1-yl)-2-(((2R,7aS)-2-fluorotetrahydro-1H-pyrrolizin-7a(5H)-yl)methoxy)quinazoline] | 2300 | 6.26 | – | –
8 | CN1C[C@H](F)C[C@H]1COc1nc(N2[C@@H]3CC[C@H]2CNC3)c2cc(F)c(-c3cc(O)cc4ccccc34)c(O)c2n1 [Example 103, 4-((1R,5S)-3,8-diazabicyclo[3.2.1]octan-8-yl)-6-fluoro-2-(((2S,4R)-4-fluoro-1-methylpyrrolidin-2-yl)methoxy)-7-(3-hydroxynaphthalen-1-yl)quinazolin-8-ol] | 517 | 5.97 | – | –
9 | CCc1c(F)ccc2cc(O)cc(-c3ccc4c(N5C[C@@H]6CC[C@](F)(C5)N6)nc(OC[C@@]56CCCN5C[C@H](F)C6)nc4c3F)c12 [Example 178, 5-ethyl-6-fluoro-4-(8-fluoro-4-((1S,5S)-1-fluoro-3,8-diazabicyclo[3.2.1]octan-3-yl)-2-(((2R,7aS)-2-fluorotetrahydro-1H-pyrrolizin-7a(5H)-yl)methoxy)quinazolin-7-yl)naphthalen-2-ol] | 5 | 8.52 | 6.84 | –
10 | CCc1c(F)ccc2cc(O)cc(-c3ccc4c(N5C[C@H]6CC[C@@](F)(C5)N6)nc(OC[C@@]56CCCN5C[C@H](F)C6)nc4c3F)c12 [Example 179, 5-ethyl-6-fluoro-4-(8-fluoro-4-((1R,5R)-1-fluoro-3,8-diazabicyclo[3.2.1]octan-3-yl)-2-(((2R,7aS)-2-fluorotetrahydro-1H-pyrrolizin-7a(5H)-yl)methoxy)quinazolin-7-yl)naphthalen-2-ol] | 4 | 8.70 | 7.34 | –
11 | Oc1cc(-c2ccc3c(C4=CC5CCC(C4)N5)nc(OC[C@@]45CCCN4C[C@H](F)C5)nc3c2)c2ccccc2c1 (some centres unmarked) [Example 108] | 671 | 4.93 | 6.38 | –
12 | CCc1c(F)ccc2cc(O)cc(-c3c(O)cc4c(N5CC6CCC(C5)N6)nc(OCC56CCCN5C[C@H](F)C6)nc4c3F)c12 (atropisomer, axis not shown; (M)) [Example 234, (M)-4-((1R,5S)-3,8-Diazabicyclo[3.2.1]octan-3-yl)-7-(8-ethyl-7-fluoro-3-hydroxynaphthalen-1-yl)-8-fluoro-2-(((2R,7aS)-2-fluorotetrahydro-1H-pyrrolizin-7a(5H)-yl)methoxy)quinazolin-6-ol] | 2 | 9.00 | 7.66 | –
13 | N#Cc1c(OC[C@@]23CCCN2C[C@H](F)C3)nc2c(F)c(-c3cc(O)cc4ccccc34)c(Cl)cc2c1N1C[C@H]2CC[C@@H](C1)N2 [Example 61, 4-((1R,5S)-3,8-diazabicyclo[3.2. 1]octan-3-yl)-6-chloro-8-fluoro-2-(((2R,7aS)-2-fluorotetrahydro-1H-pyrrolizin-7a(5H)-yl)methoxy)-7-(3-hydroxynaphthalen-1-yl)quinoline-3-carbonitrile] | 1670 | 5.59 | – | –
14 | Oc1cc(-c2c(F)cc3c(N4[C@@H]5CC[C@H]4CNC5)nc(OC[C@@]45CCCN4C[C@H](F)C5)nc3c2O)c2ccccc2c1 [Example 102, 4-((1R,5S)-3,8-Diazabicyclo[3.2.1]octan-8-yl)-6-fluoro-2-(((2R,7aS)-2-fluorotetrahydro-1H-pyrrolizin-7a(5H)-yl)methoxy)-7-(3-hydroxynaphthalen-1-yl)quinazolin-8-ol] | 55 | 6.84 | – | 5.00
15 | Oc1cc(-c2ccc3c(N4C[C@H]5COC[C@@H](C4)N5)nc(OC[C@@]45CCCN4C[C@H](F)C5)nc3c2F)c2ccccc2c1 [Example 16, 4-(4-((1R,5S)-3-oxa-7,9-diazabicyclo[3.3. 1]nonan-7-yl)-8-fluoro-2-(((2R,7aS)-2-fluorotetrahydro-1H-pyrrolizin-7a(5H)-yl)methoxy)quinazolin-7-yl)naphthalen-2-ol] | 7 | 7.70 | 5.32 | –
16 | Oc1cc(-c2ccc3c(N4[C@@H]5CC[C@H]4CNC5)nc(OC[C@@]45CCCN4C[C@H](F)C5)nc3c2F)c2cnccc2c1 [Example 31, 8-(4-((1R,5S)-3,8-diazabicyclo[3.2. 1]octan-8-yl)-8-fluoro-2-(((2R,7aS)-2-fluorotetrahydro-1H-pyrrolizin-7a(5H)-yl)methoxy)quinazolin-7-yl)isoquinolin-6-ol] | 259 | 6.26 | – | –
17 | Oc1ccc(Cl)c(-c2ccc3c(N4[C@@H]5CC[C@H]4CNC5)nc(OC[C@@]45CCCN4C[C@H](F)C5)nc3c2)c1F [Example 35, 3-(4-((1R,5S)-3,8-diazabicyclo[3.2. 1]octan-8-yl)-2-(((2R,7aS)-2-fluorotetrahydro-1H-pyrrolizin-7a(5H)-yl)methoxy)quinazolin-7-yl)-4-chloro-2-fluorophenol] | 1820 | 5.33 | – | –
